The assay concerns the target T1, Tyrosinase (Agaricus bisporus, UniProt O42713).
T1 sequence (O42713 whole entry): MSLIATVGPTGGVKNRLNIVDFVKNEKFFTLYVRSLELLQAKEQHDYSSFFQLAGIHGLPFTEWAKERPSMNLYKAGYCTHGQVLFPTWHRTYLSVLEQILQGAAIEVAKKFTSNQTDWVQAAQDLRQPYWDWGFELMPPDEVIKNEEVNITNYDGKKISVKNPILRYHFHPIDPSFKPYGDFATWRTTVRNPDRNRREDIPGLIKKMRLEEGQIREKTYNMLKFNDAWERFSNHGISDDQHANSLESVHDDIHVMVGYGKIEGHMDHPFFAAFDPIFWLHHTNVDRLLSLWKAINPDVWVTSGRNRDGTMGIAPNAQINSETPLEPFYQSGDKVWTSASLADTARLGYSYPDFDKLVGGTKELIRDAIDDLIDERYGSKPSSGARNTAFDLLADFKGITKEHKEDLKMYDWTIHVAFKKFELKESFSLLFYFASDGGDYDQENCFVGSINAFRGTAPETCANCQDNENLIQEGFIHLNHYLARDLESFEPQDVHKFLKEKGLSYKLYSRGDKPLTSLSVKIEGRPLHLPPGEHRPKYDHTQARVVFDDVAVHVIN
In words: Inhibition of mushroom tyrosinase assessed as oxidation of L-DOPA.

With `NC(=O)[C@H](Cc1ccccc1)NC(=O)OCc1cc(=O)c(O)co1`, the IC50 turned out to be 14.7 µM and the inhibition constant (Ki) worked out at 11 µM.

The values are drawn from ChEMBL document CHEMBL1155184, “Kojic acid-amino acid conjugates as tyrosinase inhibitors” (Bioorg Med Chem Lett, 2009).
